Each structure is given as a SMILES string.

In this assay the target is GABA A receptor α1β2γ2S (Rattus norvegicus, UniProt P18508+P62813+P63138). Briefly: two-microelectrode voltage clamp, Xenopus oocytes, potentiation of GABA current. The class given is cell-based.
Sequence of GABA A receptor α1β2γ2S (P62813 28-455): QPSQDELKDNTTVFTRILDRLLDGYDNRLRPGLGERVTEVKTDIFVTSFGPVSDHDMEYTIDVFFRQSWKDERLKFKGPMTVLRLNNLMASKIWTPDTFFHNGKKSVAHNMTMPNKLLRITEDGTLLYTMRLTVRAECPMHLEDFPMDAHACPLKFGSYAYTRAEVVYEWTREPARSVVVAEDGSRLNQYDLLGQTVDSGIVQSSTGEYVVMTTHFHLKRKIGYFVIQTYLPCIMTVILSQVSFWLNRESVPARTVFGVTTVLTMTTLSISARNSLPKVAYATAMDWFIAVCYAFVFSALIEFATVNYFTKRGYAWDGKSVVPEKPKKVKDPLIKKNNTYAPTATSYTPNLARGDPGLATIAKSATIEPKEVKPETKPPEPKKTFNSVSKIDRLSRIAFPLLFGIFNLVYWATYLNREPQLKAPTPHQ
Sequence of GABA A receptor α1β2γ2S (P63138 26-474): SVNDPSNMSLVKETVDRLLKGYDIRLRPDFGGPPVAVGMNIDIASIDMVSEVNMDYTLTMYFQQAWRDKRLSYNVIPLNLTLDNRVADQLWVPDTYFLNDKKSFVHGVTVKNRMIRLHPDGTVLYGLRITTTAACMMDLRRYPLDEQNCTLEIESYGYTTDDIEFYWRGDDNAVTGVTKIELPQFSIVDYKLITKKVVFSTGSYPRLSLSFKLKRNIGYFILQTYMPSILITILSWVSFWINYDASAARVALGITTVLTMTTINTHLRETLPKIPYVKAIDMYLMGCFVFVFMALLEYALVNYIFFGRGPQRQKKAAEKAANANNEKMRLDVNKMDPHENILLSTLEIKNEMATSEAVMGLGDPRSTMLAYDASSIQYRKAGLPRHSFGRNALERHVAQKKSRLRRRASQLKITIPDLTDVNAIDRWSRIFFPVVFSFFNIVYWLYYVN
Sequence of GABA A receptor α1β2γ2S (P18508 39-466): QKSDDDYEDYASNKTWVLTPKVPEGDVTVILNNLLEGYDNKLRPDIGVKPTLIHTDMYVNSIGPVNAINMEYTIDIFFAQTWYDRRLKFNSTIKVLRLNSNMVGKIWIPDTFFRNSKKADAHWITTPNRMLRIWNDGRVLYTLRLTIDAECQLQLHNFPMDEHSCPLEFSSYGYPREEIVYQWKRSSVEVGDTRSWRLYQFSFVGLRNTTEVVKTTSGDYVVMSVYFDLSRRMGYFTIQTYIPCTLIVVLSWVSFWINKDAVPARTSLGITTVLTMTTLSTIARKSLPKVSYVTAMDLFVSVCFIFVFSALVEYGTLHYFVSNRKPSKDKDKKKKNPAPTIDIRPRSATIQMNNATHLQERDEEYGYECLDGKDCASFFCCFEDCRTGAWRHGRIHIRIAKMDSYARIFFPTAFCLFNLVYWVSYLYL
With `COc1cc(C[C@@H](C)[C@@H](C)Cc2ccc(O)c(OC)c2)ccc1O` [compound 5, dihydroguaiaretic acid], the concentration giving a half-maximal response (EC50) was 79.2 ± 19.4 µM.
Next, `C=CC(=C)CC[C@@H](OC(=O)/C=C/c1ccccc1)C(C)(C)O` [compound 7, (+)-6-cinnamoyl-6,7-dihydro-7-myrceneol]: 70.6 ± 12.2 µM.
As to `COc1cc(C[C@H](C)[C@H](C)Cc2ccc(OC)c(OC)c2)ccc1O` [compound 8, mono-methyl dihydroguaiaretic acid], the EC50 was determined as 54.6 ± 28.8 µM.
With `COc1cc(C[C@H](C)[C@H](C)Cc2ccc3c(c2)OCO3)ccc1O` [compound 11, anwulignan] the figure was 31.5 ± 7.1 µM.
With `CC1(C)CCC[C@]1(C)C1=CC=C(C(=O)O)CC1` [compound 12, (−)-5,6-dihydrocuparenic acid] the figure was 118 ± 29.9 µM.

Values taken from publication PMC3201904 (Phytochemistry, 2011).
